From patent publication US8927724B2, “Isoxazole beta-lactamase inhibitors” (priority 2012, dated 2015)
Structures can show the parent of a compound that is named as a salt.

Columns and labels:
[1] = system: bacterial strains that express KPC β-lactamases; assay: Synergy MIC / standard BLI potentiation MIC assay, strains expressing KPC β-lactamases; type: cell-based; conditions: at least one KPC strain and/or better spectrum; in the presence of a β-lactam
Description: (§1) The experimental protocol was performed according to Clinical and Laboratory Standards Institute (CLSI) guidelines with modifications as described below (CLSI guidelines can be derived from the CLSI document M07-A9 published in January 2012: “Methods for Dilution Antimicrobial Susceptibility Tests for Bacteria That Grow Aerobically; Approved Standard-Ninth Edition”).
(§2) To prepare for MIC testing, frozen glycerol stocks of clinical isolates (Klebsiella pneumoniae, Eschericia coli, Enterobacter spp, Citrobacter spp, or Pseudomonas aeruginosa) were used to streak for isolated colonies on rich, non-selective, tryptic soy agar containing 5% sheep's blood (TSAB). Frozen glycerol stocks of laboratory engineered, isogenic E. coli strains, which contain cloned β-lactamase expressing plasmids were used to streak for isolated colonies on rich, selective LB agar supplemented with 25 μg/mL tetracycline to maintain the plasmid. All strains were incubated at 37° C. for 18-24 hrs.
(§3) On the day of testing, primary cultures were started by scraping off 5-10 colonies from the TSAB plates containing clinical strains or the tetracycline supplemented LB plates containing engineered strains. The clinical strain material was suspended in ˜5 mL of cation adjusted Mueller Hinton Broth (CAMHB) in 14 mL culture tubes. The engineered strain material was suspended in CAMHB (supplemented with 25 μg/mL tetracycline) in 14 mL culture tubes. All strains were incubated at 37° C. with aeration (200 rpm) for ˜2 hrs until the optical density at 600 nm (OD600) was >0.1.
(§4) The two compound components of the assay were each diluted in CAMHB and added to the 96-well broth microdilution assay plates. 50 μL of the β-lactam was added to each well of the assay plate in 2-fold dilutions with final concentrations ranging from 128 to 0.13 μg/mL. 25 μL of the BLI compound was added to all wells in the broth microdilution plates at a final concentration of 4 μg/mL. Inoculum cultures were prepared by standardizing the primary cultures to OD600=0.1 and then adding 20 μL of the adjusted primary culture per 1 mL CAMHB for clinical strains or CAMHB (supplemented with tetracycline at 100 μg/mL) for engineered strains, so that the final inoculum density was ˜10^5 colony forming units per milliliter. Diluted inoculum cultures were used to inoculate 25 μl, per well in 96-well broth microdilution assay plates. The final volume of each well was 100 μL and contained a β-lactam at different concentrations, a BLI compound at 4 μg/mL concentration, the bacterial culture at an OD600 of approximately 0.001 and when necessary tetracycline at 25 μg/mL.
(§5) Plates were incubated for 18-20 hours at 37° C. with aeration (200 rpm). Following incubation, growth was confirmed visually placing plates over a viewing apparatus (stand with a mirror underneath) and then OD600 was measured using a SpectraMax 340PC384 plate reader (Molecular Devices, Sunnyvale, Calif.). Growth was defined as turbidity that could be detected with the naked eye or achieving minimum OD600 of 0.1. MIC values were defined as the lowest concentration producing no visible turbidity.
The synergy MIC (sMIC) assay determines the concentration of the BLI required to potentiate the activity of a fixed concentration of a β-lactam antibiotic against β-lactamase producing bacterial strains. The experimental protocol was performed according to Clinical and Laboratory Standards Institute (CLSI) guidelines with modifications as described below (CLSI guidelines can be derived from the CLSI document M07-A9 published in January 2012: “Methods for Dilution Antimicrobial Susceptibility Tests for Bacteria That Grow Aerobically; Approved Standard-Ninth Edition”). […]

[2] = system: bacterial strains that express the class D cephalosporinase OXA-15; assay: Synergy MIC / standard BLI potentiation MIC assay, strains expressing OXA-15; type: cell-based, E. coli; conditions: in the presence of a β-lactam; comparator Avibactam (CCC)
Description: as §1, §2, §3, §4, §5
The synergy MIC (sMIC) assay determines the concentration of the BLI required to potentiate the activity of a fixed concentration of a β-lactam antibiotic against β-lactamase producing bacterial strains. […]

| Structure (SMILES) | activity and/or spectrum of activity against bacterial strains that express KPC β-lactamases, compared with Avibactam [1] | activity against bacterial strains that express OXA-15, compared with Avibactam [2] |
| --- | --- | --- |
| N=C(N)NCC(O)c1cc([C@@H]2CC[C@@H]3CN2C(=O)N3OS(=O)(=O)O)no1 (single isomer, unassigned) [Compound 611, (2S,5R)-2-(5-((R*)-2-guanidino-1-hydroxyethyl)isoxazol-3-yl)-7-oxo-1,6-diazabicyclo[3.2.1]octan-6-yl hydrogen sulfate] | more active than Avibactam | more active than Avibactam |
| N=C(N)NCC(O)c1cc([C@@H]2CC[C@@H]3CN2C(=O)N3OS(=O)(=O)O)no1 (single isomer, unassigned) [Compound 612, (2S,5R)-2-(5-((S*)-2-guanidino-1-hydroxyethyl)isoxazol-3-yl)-7-oxo-1,6-diazabicyclo[3.2.1]octan-6-yl hydrogen sulfate] | more active than Avibactam |  |
| NCc1cc([C@@H]2CC[C@@H]3CN2C(=O)N3OS(=O)(=O)O)no1 [Compound 601, (2S,5R)-2-(5-(aminomethyl)isoxazol-3-yl)-7-oxo-1,6-diazabicyclo[3.2.1]octan-6-yl hydrogen sulfate] | more active than Avibactam |  |
| N=C(N)NCc1cc([C@@H]2CC[C@@H]3CN2C(=O)N3OS(=O)(=O)O)no1 [Compound 603, (2S,5R)-2-(5-(guanidinomethyl)isoxazol-3-yl)-7-oxo-1,6-diazabicyclo[3.2.1]octan-6-yl hydrogen sulfate] | more active than Avibactam | more active than Avibactam |
| NCCNC(=O)c1cc([C@@H]2CC[C@@H]3CN2C(=O)N3OS(=O)(=O)O)no1 [Compound 605, (2S,5R)-2-(5-((2-aminoethyl)carbamoyl)isoxazol-3-yl)-7-oxo-1,6-diazabicyclo[3.2.1]octan-6-yl hydrogen sulfate] | more active than Avibactam |  |
| N=C(N)N1CCC(c2cc([C@@H]3CC[C@@H]4CN3C(=O)N4OS(=O)(=O)O)no2)CC1 [Compound 607, (2S,5R)-2-(5-(1-carbamimidoylpiperidin-4-yl)isoxazol-3-yl)-7-oxo-1,6-diazabicyclo[3.2.1]octan-6-yl hydrogen sulfate] | more active than Avibactam |  |
| N=C(N)NCCNC(=O)c1cc([C@@H]2CC[C@@H]3CN2C(=O)N3OS(=O)(=O)O)no1 [Compound 608, (2S,5R)-2-(5-((2-guanidinoethyl)carbamoyl)isoxazol-3-yl)-7-oxo-1,6-diazabicyclo[3.2.1]octan-6-yl hydrogen sulfate] | more active than Avibactam |  |
| O=C1N2C[C@@H](CC[C@H]2c2cc(CCNC3CCNCC3)on2)N1OS(=O)(=O)O [Compound 609, (2S,5R)-7-oxo-2-(5-(2-(piperidin-4-ylamino)ethyl)isoxazol-3-yl)-1,6-diazabicyclo[3.2.1]octan-6-yl hydrogen sulfate] | more active than Avibactam |  |
| N=C(N)N1CCC(NCCc2cc([C@@H]3CC[C@@H]4CN3C(=O)N4OS(=O)(=O)O)no2)CC1 [Compound 610, (2S,5R)-2-(5-(2-((1-carbamimidoylpiperidin-4-yl)amino)ethyl)isoxazol-3-yl)-7-oxo-1,6-diazabicyclo[3.2.1]octan-6-yl hydrogen sulfate] | more active than Avibactam |  |
| N=C(N)NC1(Cc2cc([C@@H]3CC[C@@H]4CN3C(=O)N4OS(=O)(=O)O)no2)CC1 [Compound 613, (2S,5R)-2-(5-((1-guanidinocyclopropyl)methyl)isoxazol-3-yl)-7-oxo-1,6-diazabicyclo[3.2.1]octan-6-yl hydrogen sulfate] | more active than Avibactam |  |
| N=C(N)NCCCc1cc([C@@H]2CC[C@@H]3CN2C(=O)N3OS(=O)(=O)O)no1 [Compound 615, (2S,5R)-2-(5-(3-guanidinopropyl)isoxazol-3-yl)-7-oxo-1,6-diazabicyclo[3.2.1]octan-6-yl hydrogen sulfate] | more active than Avibactam |  |
| N[C@H]1C[C@@H](c2cc([C@@H]3CC[C@@H]4CN3C(=O)N4OS(=O)(=O)O)no2)C1 [Compound 616, (2S,5R)-2-(5-((1s,3R)-3-aminocyclobutyl)isoxazol-3-yl)-7-oxo-1,6-diazabicyclo[3.2.1]octan-6-yl hydrogen sulfate] | more active than Avibactam |  |
| N=C(N)N[C@H]1C[C@@H](c2cc([C@@H]3CC[C@@H]4CN3C(=O)N4OS(=O)(=O)O)no2)C1 [Compound 617, (2S,5R)-2-(5-((1s,3R)-3-guanidinocyclobutyl)isoxazol-3-yl)-7-oxo-1,6-diazabicyclo[3.2.1]octan-6-yl hydrogen sulfate] | more active than Avibactam |  |
| NCCNCCc1cc([C@@H]2CC[C@@H]3CN2C(=O)N3OS(=O)(=O)O)no1 [Compound 620, (2S,5R)-2-(5-(2-((2-aminoethyl)amino)ethyl)isoxazol-3-yl)-7-oxo-1,6-diazabicyclo[3.2.1]octan-6-yl hydrogen sulfate] | more active than Avibactam |  |
| N=C(N)NCCNCCc1cc([C@@H]2CC[C@@H]3CN2C(=O)N3OS(=O)(=O)O)no1 [Compound 621, (2S,5R)-2-(5-(2-((2-guanidinoethyl)amino)ethyl)isoxazol-3-yl)-7-oxo-1,6-diazabicyclo[3.2.1]octan-6-yl hydrogen sulfate] | more active than Avibactam |  |
| O=C1N2C[C@@H](CC[C@H]2c2cc(CNC3CNC3)on2)N1OS(=O)(=O)O [Compound 622, (2S,5R)-2-(5-((azetidin-3-ylamino)methyl)isoxazol-3-yl)-7-oxo-1,6-diazabicyclo[3.2.1]octan-6-yl hydrogen sulfate] | more active than Avibactam |  |
| O=C1N2C[C@@H](CC[C@H]2c2cc(CCNC3CNC3)on2)N1OS(=O)(=O)O [Compound 623, (2S,5R)-2-(5-(2-(azetidin-3-ylamino)ethyl)isoxazol-3-yl)-7-oxo-1,6-diazabicyclo[3.2.1]octan-6-yl hydrogen sulfate] | more active than Avibactam |  |
| O=C1N2C[C@@H](CC[C@H]2c2cc(COC3CNC3)on2)N1OS(=O)(=O)O [Compound 624, (2S,5R)-2-(5-((azetidin-3-yloxy)methyl)isoxazol-3-yl)-7-oxo-1,6-diazabicyclo[3.2.1]octan-6-yl hydrogen sulfate] | more active than Avibactam |  |
| O=C1N2C[C@@H](CC[C@H]2c2cc(CC3CCNCC3)on2)N1OS(=O)(=O)O [Compound 627, (2S,5R)-7-oxo-2-(5-(piperidin-4-ylmethyl)isoxazol-3-yl)-1,6-diazabicyclo[3.2.1]octan-6-yl hydrogen sulfate] | more active than Avibactam |  |
